Data as given in patent US10681909B2, “Herbicidal triazoles” (FMC Corporation, priority 2014, dated 2020).

Assays:
sedge, umbrella = assay: Test B flooded paddy test; type: in vivo, Cyperus difformis; conditions: 125 g ai/ha, applied to paddy water at 2-leaf stage, visual rating after 13 to 15 d, scale 0 (no effect) to 100 (complete control)
From the text: (§1) At time of treatment, test pots were flooded to 3 cm above the soil surface, treated by application of test compounds directly to the paddy water, and then maintained at that water depth for the duration of the test. Treated plants and controls were maintained in a greenhouse for 13 to 15 d, after which time all species were compared to controls and visually evaluated. […] A dash (-) response means no test result.

foxtail, giant [1] = assay: Test A preemergence; type: in vivo, Setaria faberii; conditions: 0 to 100 scale (0 no effect, 100 complete control)
Procedure, shortened: (§2)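 Test chemicals in a non-phytotoxic solvent with surfactant were applied as a directed soil spray preemergence to seeds sown in loam/sand. Postemergence sprays went to plants 2–10 cm tall at the one- to two-leaf stage. A dash means no result.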

corn [2] = assay: Test A postemergence; type: in vivo, Zea mays; conditions: 0 to 100 scale (0 no effect, 100 complete control), approx. 10 d
Procedure, shortened: as §2

ducksalad = assay: Test B flooded paddy test; type: in vivo, Heteranthera limosa; conditions: 125 g ai/ha, applied to paddy water at 2-leaf stage, visual rating after 13 to 15 d, scale 0 (no effect) to 100 (complete control)
From the text: as §1

pigweed [3] = assay: Test A postemergence; type: in vivo, Amaranthus retroflexus; conditions: 0 to 100 scale (0 no effect, 100 complete control), approx. 10 d
Procedure, shortened: as §2

foxtail, giant [4] = assay: Test A postemergence; type: in vivo, Setaria faberii; conditions: 0 to 100 scale (0 no effect, 100 complete control), approx. 10 d
Procedure, shortened: as §2

barnyardgrass [5] = assay: Test A preemergence; type: in vivo, Echinochloa crus-galli; conditions: 0 to 100 scale (0 no effect, 100 complete control)
Procedure, shortened: as §2

rice = assay: Test B flooded paddy test; type: in vivo, Oryza sativa; conditions: 125 g ai/ha, applied to paddy water at 2-leaf stage, visual rating after 13 to 15 d, scale 0 (no effect) to 100 (complete control)
From the text: as §1

barnyardgrass [6] = assay: Test A postemergence; type: in vivo, Echinochloa crus-galli; conditions: 0 to 100 scale (0 no effect, 100 complete control), approx. 10 d
Procedure, shortened: as §2

pigweed [7] = assay: Test A preemergence; type: in vivo, Amaranthus retroflexus; conditions: 0 to 100 scale (0 no effect, 100 complete control)
Procedure, shortened: as §2

morningglory [8] = assay: Test A preemergence; type: in vivo, Ipomoea spp.; conditions: 0 to 100 scale (0 no effect, 100 complete control)
From the text: (§3) Seeds of plant species selected from barnyardgrass (Echinochloa crus-galli), crabgrass, large (large crabgrass, Digitaria sanguinalis), kochia (Kochia scoparia), ragweed (common ragweed, Ambrosia elatior), foxtail, giant (giant foxtail, Setaria faberii), morningglory (Ipomoea spp.), pigweed (Amaranthus retroflexus), velvetleaf (Abutilon theophrasti), ryegrass, Italian (Italian ryegrass, Lolium multiflorum), wheat (Triticum aestivum), and corn (Zea mays) were planted into a blend of loam soil and sand and treated preemergence with a directed soil spray using test chemicals formulated in a non-phytotoxic solvent mixture which included a surfactant. At the same time, plants selected from these crop and weed species and also blackgrass (Alopecurus myosuroides), and galium (catchweed bedstraw, Galium aparine), were planted in pots containing the same blend of loam soil and sand and treated with postemergence applications of test chemicals formulated in the same manner. Plants ranged in height from 2 to 10 cm and were in the one- to two-leaf stage for the postemergence treatment. […] A dash (-) response means no test result.

wheat [9] = assay: Test A preemergence; type: in vivo, Triticum aestivum; conditions: 0 to 100 scale (0 no effect, 100 complete control)
From the text: as §3

wheat [10] = assay: Test A postemergence; type: in vivo, Triticum aestivum; conditions: 0 to 100 scale (0 no effect, 100 complete control), approx. 10 d
Procedure, shortened: as §2

barnyardgrass [11] = assay: Test B flooded paddy test; type: in vivo, Echinochloa crus-galli; conditions: 125 g ai/ha, applied to paddy water at 2-leaf stage, visual rating after 13 to 15 d, scale 0 (no effect) to 100 (complete control)
From the text: as §1

velvetleaf [12] = assay: Test A postemergence; type: in vivo, Abutilon theophrasti; conditions: 0 to 100 scale (0 no effect, 100 complete control), approx. 10 d
From the text: as §3

morningglory [13] = assay: Test A postemergence; type: in vivo, Ipomoea spp.; conditions: 0 to 100 scale (0 no effect, 100 complete control), approx. 10 d
From the text: as §3

crabgrass, large [14] = assay: Test A preemergence; type: in vivo, Digitaria sanguinalis; conditions: 0 to 100 scale (0 no effect, 100 complete control)
From the text: as §3

crabgrass, large [15] = assay: Test A postemergence; type: in vivo, Digitaria sanguinalis; conditions: 0 to 100 scale (0 no effect, 100 complete control), approx. 10 d
From the text: as §3

velvetleaf [16] = assay: Test A preemergence; type: in vivo, Abutilon theophrasti; conditions: 0 to 100 scale (0 no effect, 100 complete control)
From the text: as §3

corn [17] = assay: Test A preemergence; type: in vivo, Zea mays; conditions: 0 to 100 scale (0 no effect, 100 complete control)
From the text: as §3

SMILES	Plant response rating, Sedge, Umbrella, Flood (sedge, umbrella)	Plant response rating, Foxtail, Giant (foxtail, giant [1]; 125 g ai/ha)	Plant response rating, Foxtail, Giant (foxtail, giant [1]; 500 g ai/ha, approx. 10 d)	Plant response rating, Corn (corn [2]; 125 g ai/ha)	Plant response rating, Corn (corn [2]; 500 g ai/ha)	Plant response rating, Ducksalad, Flood (ducksalad)	Plant response rating, Pigweed (pigweed [3]; 125 g ai/ha)	Plant response rating, Pigweed (pigweed [3]; 500 g ai/ha)	Plant response rating, Foxtail, Giant (foxtail, giant [4]; 125 g ai/ha)	Plant response rating, Foxtail, Giant (foxtail, giant [4]; 500 g ai/ha)	Plant response rating, Barnyardgrass (barnyardgrass [5]; 125 g ai/ha)	Plant response rating, Barnyardgrass (barnyardgrass [5]; 500 g ai/ha, approx. 10 d)	Plant response rating, Rice, Flood (rice)	Plant response rating, Barnyardgrass (barnyardgrass [6]; 125 g ai/ha)	Plant response rating, Barnyardgrass (barnyardgrass [6]; 500 g ai/ha)	Plant response rating, Pigweed (pigweed [7]; 125 g ai/ha)	Plant response rating, Pigweed (pigweed [7]; 500 g ai/ha, approx. 10 d)	Plant response rating, Morningglory (morningglory [8]; 125 g ai/ha)	Plant response rating, Morningglory (morningglory [8]; 500 g ai/ha, approx. 10 d)	Plant response rating, Wheat (wheat [9]; 125 g ai/ha)	also measured
CCCc1nc(-c2ccc(C(F)(F)F)cc2)nn1Cc1ccnc(C(F)(F)F)c1 [Compound 12]	0	100	100	20	40	0	100	100	70	90	50	80	0	30	50	100	100	70	90	10	Plant response rating, Wheat (wheat [9]; 500 g ai/ha, approx. 10 d): 30; Plant response rating, Wheat (wheat [10]; 125 g ai/ha): 30; Plant response rating, Wheat (wheat [10]; 500 g ai/ha): 40; Plant response rating, Barnyardgrass, Flood (barnyardgrass [11]): 0; Plant response rating, Velvetleaf (velvetleaf [12]; 125 g ai/ha): 70; Plant response rating, Velvetleaf (velvetleaf [12]; 500 g ai/ha): 100; Plant response rating, Morningglory (morningglory [13]; 125 g ai/ha): 70; Plant response rating, Morningglory (morningglory [13]; 500 g ai/ha): 100; Plant response rating, Crabgrass, Large (crabgrass, large [14]; 125 g ai/ha): 100; Plant response rating, Crabgrass, Large (crabgrass, large [14]; 500 g ai/ha, approx. 10 d): 100; Plant response rating, Crabgrass, Large (crabgrass, large [15]; 125 g ai/ha): 50; Plant response rating, Crabgrass, Large (crabgrass, large [15]; 500 g ai/ha): 90; Plant response rating, Velvetleaf (velvetleaf [16]; 125 g ai/ha): 70; Plant response rating, Velvetleaf (velvetleaf [16]; 500 g ai/ha, approx. 10 d): 70; Plant response rating, Corn (corn [17]; 125 g ai/ha): 0; Plant response rating, Corn (corn [17]; 500 g ai/ha, approx. 10 d): 20
Cn1nc(-c2ccc(F)cc2)nc1Cc1ccnc(C(F)(F)F)c1 [Compound 13]	80	100	100	30	60	65	100	100	80	90	30	100	0	50	90	100	100	60	70	0	Plant response rating, Wheat (wheat [9]; 500 g ai/ha, approx. 10 d): 0; Plant response rating, Wheat (wheat [10]; 125 g ai/ha): 30; Plant response rating, Wheat (wheat [10]; 500 g ai/ha): 40; Plant response rating, Barnyardgrass, Flood (barnyardgrass [11]): 0; Plant response rating, Velvetleaf (velvetleaf [12]; 125 g ai/ha): 70; Plant response rating, Velvetleaf (velvetleaf [12]; 500 g ai/ha): 90; Plant response rating, Morningglory (morningglory [13]; 125 g ai/ha): 70; Plant response rating, Morningglory (morningglory [13]; 500 g ai/ha): 100; Plant response rating, Crabgrass, Large (crabgrass, large [14]; 125 g ai/ha): 100; Plant response rating, Crabgrass, Large (crabgrass, large [14]; 500 g ai/ha, approx. 10 d): 100; Plant response rating, Crabgrass, Large (crabgrass, large [15]; 125 g ai/ha): 70; Plant response rating, Crabgrass, Large (crabgrass, large [15]; 500 g ai/ha): 90; Plant response rating, Velvetleaf (velvetleaf [16]; 125 g ai/ha): 20; Plant response rating, Velvetleaf (velvetleaf [16]; 500 g ai/ha, approx. 10 d): 80; Plant response rating, Corn (corn [17]; 125 g ai/ha): 0; Plant response rating, Corn (corn [17]; 500 g ai/ha, approx. 10 d): 10
CCCn1nc(-c2ccc(F)cc2)nc1C(O)c1ccnc(C(F)(F)F)c1 (stereo not drawn) [Compound 16]	0	50	90	10	50	0	100	100	30	70	0	80	0	0	70	80	100	0	20	0	Plant response rating, Wheat (wheat [9]; 500 g ai/ha, approx. 10 d): 0; Plant response rating, Wheat (wheat [10]; 125 g ai/ha): 10; Plant response rating, Wheat (wheat [10]; 500 g ai/ha): 30; Plant response rating, Barnyardgrass, Flood (barnyardgrass [11]): 0; Plant response rating, Velvetleaf (velvetleaf [12]; 125 g ai/ha): 0; Plant response rating, Velvetleaf (velvetleaf [12]; 500 g ai/ha): 40; Plant response rating, Morningglory (morningglory [13]; 125 g ai/ha): 40; Plant response rating, Morningglory (morningglory [13]; 500 g ai/ha): 40; Plant response rating, Crabgrass, Large (crabgrass, large [14]; 125 g ai/ha): 60; Plant response rating, Crabgrass, Large (crabgrass, large [14]; 500 g ai/ha, approx. 10 d): 100; Plant response rating, Crabgrass, Large (crabgrass, large [15]; 125 g ai/ha): 20; Plant response rating, Crabgrass, Large (crabgrass, large [15]; 500 g ai/ha): 70; Plant response rating, Velvetleaf (velvetleaf [16]; 125 g ai/ha): 0; Plant response rating, Velvetleaf (velvetleaf [16]; 500 g ai/ha, approx. 10 d): 20; Plant response rating, Corn (corn [17]; 125 g ai/ha): 0; Plant response rating, Corn (corn [17]; 500 g ai/ha, approx. 10 d): 0
